# Source: patent publication US20240132910A1, “USE OF HISTIDINE RICH PEPTIDES AS A TRANSFECTION REAGENT FOR rAAV AND rBV PRODUCTION” (BioMarin Pharmaceutical Inc., priority 2021, published 2024)
# Where two headings read alike, the source gives them in different places. Ends that are not written are not given here.
# Key:
# Sf9 cells [1] = test: AAV5 capsids from Sf9 cells infected with the rBVs, ddPCR; type: cell-based, Spodoptera frugiperda; details: rBVs from transfected Sf9 cells, FIG. 19
# Procedure: The different rBVs were collected and used to further infect naive Sf9 cells to generate AAV5 capsids, where the rBVs have nucleotide sequences for generating AAV5 capsids. The titers were determined using ddPCR. […] The AAV5 capsids produced using LAH4-L1-F4 had concentrations of the VP1 capsid protein and ratios of capsid to vector genomes that were the same as AAV5 capsids produced using the control transfection reagent.
# Sf9 cells [2] = test: rBV titers from bacmid-transfected Sf9 cells; type: cell-based, Spodoptera frugiperda; details: FIG. 18
# Procedure: The titer of the rBV can be determined using a foci/viral plaque assay. This assay first includes the step of infecting cells with serial dilutions of a solution containing rBV. After infection occurs for a predetermined time, the rBV is removed from the cultures and the cells are incubated for a pre-determined time. After the pre-determined time has elapsed, a plaquing media (e.g., containing agarose) is added to the cultures and allowed to harden. The cells are allowed to further incubate for a pre-determined time and the number of plaques are counted after the pre-determined time. The titer is calculated using the following formula: Titer (plaque forming units/mL)=number of plaques×dilution factor×(1/(mL of inoculum/well)
# AAV5 capsids were also produced in Sf9 cells. To produce the AAV5 capsids, Sf9 cells were transfected with bacmids having nucleotide sequences for generating AAV5 capsids or providing an AAV genome vector using the control transfection reagent and different HRPs. […] In culture, the rBVs generated from the initial bacmid transfection subsequently infect other Sf9 cells that in turn generated more rBVs.
# in vitro = in vitro ADME; details: human, cells or culture medium
# Procedure: Clearance of the ancillary materials such as transfection reagent during bioprocessing is emphasized. We hypothesized that LAH4 is largely degraded by cellular proteases after transfection process is completed. […] Different concentrations of the LAH4 peptide were added to cell culture volumes of 3 L and 100 L (i.e., bioreactors). At 4 hours post transfection, the LAH4 peptide concentration was reduced by ˜45% to ˜85% relative to initial LAH4 peptide concentration. At 24 hours post transfection, the LAH4 peptide concentration was reduced by ˜83% to ˜97% relative to initial LAH4 peptide concentration. At 48 hours post transfection, the LAH4 peptide concentration was reduced by ˜93% to ˜99% relative to initial LAH4 peptide concentration. At 72 hours post transfection, the LAH4 peptide concentration was reduced by ˜96% to ˜99% relative to initial LAH4 concentration.
# Cell culturing: Suspension HEK293 cells are cultured according to the manufacturer's instructions in the provided cell culture media. For small scale transfection study HEK293 cells are seeded in the range of at a predetermined cell density in 125 ml Erlenmeyer shake flasks on the day of transfection.
# LAH4 detection in cells: Samples are collected at different time points after transfection and analyzed using LC/MS assay.
# [3] = Viability of transfected HEK293 cells (Trypan Blue exclusion), AAV9 production in Ambr15; type: cell-based; details: human, read-out: average cell viability
# Procedure: The cell viabilities were quantified using an automated cell counter and Trypan Blue exclusion.
# In Ambr15 minibioreactors (15 mL volume), AAV9 capsids were produced in HEK293 cells transfected with plasmids for producing AAV9 capsids and providing an AAV genome vector containing an GFP expression cassette using different complexation volumes of the LAH4 peptide. Prior to transfection, the plasmids were mixed with a concentration of the LAH4 peptide and incubated for 10 minutes and 60 minutes. The LAH4/plasmids mixtures had volumes that were 1% and 10% of the HEK293 cell culture volume. The titers were determined using ddPCR and GFP intensity was measured by attune flow cytometer.
# [4] = Stability of DNA:transfection reagent complexes before transfection
# Procedure: The LAH4 peptide was allowed to incubate with the plasmids for more than 1 hour for large scale (more than or equal 100 L) transient transfections since this incubation time allowed for improved stability of the transfection complexes such that the processes were robust and reproducible. It was discovered that LAH4: DNA complexes are stable at least for 1 hour. In a follow up study, the stability of LAH:DNA complexes are evaluated for up to 1 week when stored at 2-8° C. and/or room temperature and with or without exposure to ambient light.
# Transfection: LAH4 solution from the same batch is kept at −20° C. in single use aliquots. LAH4 is thawed at RT and mixed with plasmid DNA containing GFP reporter gene. DNA:LAH4 complexes are kept in closed caps tubes to prevent evaporation at either room temperature or 2-8° C. for indicated periods of time before transfection.
# Stability of LAH4:DNA complexes: Biophysical characterization of LAH4:DNA complexes is performed. Methods can include size and charge measurements.
substance,measurement,setting,value
KKALLAHFFHLLALLALHFFHALKKA (Synthetic LAH4-L1-F4 peptide),AAV5 capsid titers versus control reagent,Sf9 cells [1],comparable
same,rBV titers versus control reagent,Sf9 cells [2],comparable
KKALLALALHHLAHLAHHLALALKKA (Synthetic LAH5 peptide),rBV titers versus control reagent,Sf9 cells [2],comparable
KKALLALALHHLAHLALHLALALKKA [LAH4],metabolised at 72 h,in vitro,> 95%
same,viability,"[3]; Ambr15, 1% complexation volume, FIG. 10D",> 75%
same,viability,"[3]; Ambr15, 10% complexation volume, FIG. 10D",~72.5%
same,viability,"[3]; Ambr15, 10 minute complexation time, FIG. 10H",~72.5%
same,viability,"[3]; Ambr15, 60 minute complexation time, FIG. 10H",> 75%
same,stability of LAH4:DNA complexes,[4],≥ 1 h
"polyethylenimine [PEI, reference compound]",stability when mixed with plasmids and incubated for extended periods of time,[4],does not remain stable
